Experimental data published in patent US11529340B2 (priority 2016, dated 2022).
Entries after “also recorded” stand apart in the source; their conditions may differ. Like-named read-outs stand apart in the source and are kept apart here.

Tests used:
[1] = test system: light-driven mEPSC frequency in spinal cord slices from Nav1.8-ChR2 mice; assay: Spinal cord slice electrophysiology: inhibition of 470 nm light-evoked mEPSCs; assay type: cell-based; conditions: increasing concentrations superfused on slice
[2] = test system: mice; assay: In vivo antagonism of OMI and BOMI antinociception by opioid antagonists; conditions: agonist administered intrathecally and intracerebroventricularly
Method: FIGS. 1a-1d show antagonism studies of OMI and BOMI (6) in vivo from Example 2.
OMI (Portoghese, P. S., et al., J. Med. Chem. 1990, 33, 1714-20) and BOMI were tested in vivo. […] Oral gavage of OMI and (6) produced the peak antinociceptive effect at 30 minutes; further they were taken in vivo studies in mice and challenged by antagonists such as NTI, norBNI and β-FNA. The results are depicted in FIGS. 1a-1d. […] Therefore, it was concluded that OMI and (6) both are MOR-DOR heteromer-selective agonists.

[3] = test system: HEK-293 cells transfected with opioid receptors (mu, delta, kappa homomers; mu-delta, mu-kappa, kappa-delta heteromers); assay: Intracellular calcium release assay (FLIPR); assay type: cell-based; conditions: HEK-293 with chimeric Δ6-Gqi4-myr, opioid receptor homomers and heteromers
Method: The target compounds were tested for agonist activity using an intracellular calcium release assay. Briefly, HEK-293 cells were transfected with a chimeric Δ6-Gqi4-myr protein employed to measure intracellular Ca^+2 ion release upon receptor activation. Cells stably expressing the chimeric protein were selected from transiently transfected cells in zeocin-containing medium (DMEM+10% fetal bovine serum+1% penicillin/streptomycin+[…] zeocin). Opioid receptors were transiently transfected using different combinations of DNA for heteromers (mu-delta, mu-kappa, kappa-delta) or for singly expressing homomers (mu, delta, kappa). Intracellular calcium release was measured using a FLIPR calcium kit (Molecular Devices) in a FlexStation3 apparatus. For each compound, concentration-response profiles were established by measuring the fluorescence for 90 seconds after addition of the compound and determining the peak effect (maximum-minimum). A concentration-response curve was plotted for the change in Relative Fluorescence Units (ΔRFU) vs. concentration. The calcium mobilization of the antagonist NTI and partial agonist OMI were studied.

[4] = test system: CFA-induced hyperalgesia in mice; assay: Hargreaves assay, CFA-induced inflammatory hyperalgesia; assay type: in vivo; conditions: for ED50: Mus musculus
[5] = test system: SNI-induced allodynia in mice; assay: Spared nerve injury (SNI)-induced mechanical allodynia, electronic von Frey; conditions: subcutaneous
[6] = test system: mice; assay: Antinociceptive tolerance, day 1 vs day 2 % MPE; assay type: in vivo; conditions: i.t.
Method: Eighty percent effective doses of OMI (4) or BOMI (6) were administered either i.c.v. or i.t. once on day 1 and again on day 2 and the % MPE determined on both days.

[7] = test system: thermal nociceptive responses in naive mice; assay: Hargreaves assay, naive mice; assay type: in vivo
[8] = test system: thermal nociceptive responses in mice; assay: Hot water tail flick test, intrathecal injection, naive mice; assay type: in vivo
Method: Subjects were given an intrathecal injection of loperamide, OMI, or combination, and post-drug response were analyzed as a % of maximum possible effect, which was used to generate dose-response curves.
Thermal nociception was measured either using a warm water tail flick test or using the Hargreaves hindpaw method as described previously (Hargreaves, K. et al., Pain 32: 77-88, 1988). Briefly, animals were placed on a heated glass floor (30° C.) and a small plastic box restricted their movement. After allowing the animals to acclimate to the testing environment for a minimum of 15 minutes, a radiant heat lamp was shone on the left hindpaw until the animal withdrew the paw. Paw withdrawal latencies (PWLs) were measured by an IITC plantar stimulator analgesia meter, and a cutoff time of 20 seconds was used to prevent tissue damage. An average of 3-5 PWLs were taken, with a minimum of 30 seconds between tests.
Data Analysis: The ED50, in nanomoles with 95% confidence limits, of all agonists and combinations were calculated using the graded dose-response curve method of Tallarida and Murray (Tallarida, R. J. and Murray, R. B., Manual of pharmacological calculations with computer programs, pp. 26-31, Springer-Verlag, NY, 1987). […] Isobolographic analyses were performed using the numerical method (Tallarida, Pain 49: 93-97, 1992; Ossipov et al., Anesthesiology 86:1-9 1997). […]

[9] = test system: mice; assay: Naloxone withdrawal jumping protocol (dependence); assay type: in vivo; conditions: for dependence: naloxone-precipitated
Method: Morphine, OMI and BOMI were tested for dependence using the naloxone withdrawal jumping protocol (Marshall, I. et al., Br. J. Pharmacol. 1969, 37, 505P-506P; and El-kadi, A. O. et al., General Pharmacology: The Vascular System 1994, 25, 1505-1510). On day one the ED80 dose was injected 3 times per day 4 hours apart using the s.c. route of administration. On day 2 two times ED80 and day 3 and 4 with four times the ED80 were injected at the same times used on day one. On the fifth day each animal received a bolus of the top dose followed three hours later by a single dose of naloxone s.c. (10 or 50 mg/kg) and placed in individual circular Plexiglas observation chambers (6.5″×9″). […] At 10 mg/kg and 50 mg/kg naloxone precipitated withdrawal in the morphine-treated animals with a mean 91.5 jumps and 99.3 jumps, respectively. The average number of jumps for both OMI and BOMI after both doses of naloxone was 1 jump.

[10] = test system: mice; assay: Oral gavage antinociception (% MPE) in mice; assay type: in vivo; conditions: for time of peak antinociceptive effect: oral gavage; for % MPE: oral, 5 mg/kg
Method: Animals are restrained by the scruff and held upright (vertically) to maintain a straight line from the mouth to the esophagus. Prior to dosing, the distance from the oral cavity to the caudal point of the sternum is gauged with the gavage needle. Using a bulb-tipped gastric gavage needle attached to a 1 mL syringe, the needle is passed along the roof of the animal's mouth and into the esophagus, stopping at the pre-measured distance. The drug is slowly injected and the needle removed. Drugs are administered in a volume of 10 mL/kg.

[11] = test system: mice; conditions: intrathecal; cited from earlier work
[12] = test system: mice; conditions: cited from earlier work
[13] = test system: MORs and DORs in CFA-inflamed mice; assay: Antagonism of Lo-OMI anti-hyperalgesia by opioid antagonists (Hargreaves, CFA); assay type: in vivo; conditions: intraplantar and subcutaneous; β-FNA 24 hours before, others co-administered
[14] = test system: mice; assay: Antinociceptive potency (% MPE) after i.t. or i.c.v. administration; assay type: in vivo
Method: OMI (4) or BOMI (6) were administered via either i.t. or i.c.v. routes and percent maximum possible antinociception (% MPE) determined at 5 or 10 min post-treatment, respectively.

[15] = sc, subcutaneous (systemic), CFA-inflamed, read-out: ED50 (anti-hyperalgesia)
[16] = topical solution on inflamed hindpaw, CFA
[17] = Mus musculus, sc, 0.75 h, subcutaneous, CFA-naive, tested 45 minutes later, read-out: ED50
[18] = intraplantar, naive, tested 15 minutes later
[19] = naloxone s.c. 10 mg/kg after escalating s.c. dosing
[20] = naloxone s.c. 50 mg/kg after escalating s.c. dosing
[21] = systemic, CFA-inflamed, loperamide + BOMI co-administered, read-out: ED50 of the drug with the other drug (loperamide or BOMI) present
[22] = intraplantar, CFA-inflamed, loperamide + BOMI co-administered

With CN1CC[C@]23c4c5ccc(O)c4O[C@H]2c2[nH]c4ccccc4c2C[C@@]3(O)[C@H]1C5 [OMI (4), oxymorphindole] the “inhibition of light-driven mEPSC frequency” value [1] was “inhibited mEPSC frequency in a concentration-dependent manner”, the “antagonism by β-FNA” value [2] was “antagonized by β-FNA” and the calcium mobilization profile [3] was “demonstrated a profile of MOR-DOR heteromer selectivity”. The calcium mobilization profile ([3]; listed as OMI) was “selective mobilization in the MOR-DOR co-expressing cell line”, the ED50 [4, 15] was 1.12 mg/kg and the “ED50 (anti-hyperalgesia)” value ([4]; intraplantar, CFA-inflamed) was 12.3 nmol. For the same compound, the “ED50 (anti-hyperalgesia)” value [4, 16] was 166 µM, the “time of peak anti-allodynia post-injection” value [5] was 1 h and the antinociceptive tolerance [6] was “neither agent injected i.t. produced antinociceptive tolerance”. For the same compound, the antinociceptive tolerance ([6]; listed as OMI) was “did not produce tolerance”, the ED50 [7, 17] was 5.13 mg/kg and the ED50 [7, 18] was 33.7 nmol. The ED50 [8] was 3.52 nmol, the “number of jumps in 10 minutes (mean)” value [9, 19] was 1 jumps and the “number of jumps in 10 minutes (mean)” value [9, 20] was 1 jumps. For the same compound, the dependence ([9]; listed as OMI) was “neither OMI nor (6) produced dependence; also recorded: did not create any dependence”, the “time of peak antinociceptive effect” value [10] was 30 min and the “% MPE” value ([10]; 20 min) was 38.0 ± 8.4 % MPE. For the same compound, the “% MPE” value ([10]; 30 min) was 29.5 ± 4.5 % MPE, the “% MPE” value ([10]; 60 min) was 38.5 ± 10.7 % MPE and the “interaction with the MOR agonist morphine” value [11] was “synergized with the MOR agonist morphine”.

For CN1CC[C@]23c4c5ccc(O)c4O[C@H]2[C@@H](O)C=C[C@H]3[C@H]1C5 [morphine], the “number of jumps in 10 minutes (mean)” value [9, 19] was 91.5 jumps and the “number of jumps in 10 minutes (mean)” value [9, 20] was 99.3 jumps.

In the case of Clc1cccc(Cl)c1N=C1NCCN1 [clonidine], the “impairment of rotarod performance / motor function” value ([12]; literature or earlier results, route as stated) is given as “dose-dependently and fully impairs rotarod performance”.

In the case of C[C@]12N[C@H](Cc3ccccc31)c1ccccc12 [MK801], the “ED50 for reduction in rotarod performance” value ([12]; intrathecal) is listed as 11 nmol and the “reduction in rotarod performance” value ([12]; intrathecal) is listed as 80%.

In the case of COC(=O)/C=C/C(=O)N[C@@H]1CC[C@@]2(O)[C@H]3Cc4ccc(O)c5c4[C@@]2(CCN3CC2CC2)[C@H]1O5 [β-FNA, beta-funaltrexamine], the “reversal of the anti-hyperalgesic effects of Lo-OMI” value (shortened to “reversal”) [13] is reported as “significantly reversed the anti-hyperalgesic effects of Lo-OMI in a dose-dependent manner”.

For C=CC[N+]1(C)CC[C@]23c4c5ccc(O)c4O[C@H]2C(=O)CC[C@@]3(O)[C@H]1C5 (stereo partly drawn) [naloxone methiodide], the “reversal” value [13] was “significantly reversed the anti-hyperalgesic effects of Lo-OMI in a dose-dependent manner; also recorded: completely ablated the behavioral anti-hyperalgesia”.

In the case of CN(C)C(=O)C(CCN1CCC(O)(c2ccc(Cl)cc2)CC1)(c1ccccc1)c1ccccc1 [loperamide], the “inhibition of light-driven mEPSC frequency” value [1] is reported as “inhibited mEPSC frequency in a concentration-dependent manner”, the ED50 [4, 15] is reported as 2.42 mg/kg and the ED50 [4, 21] is reported as 0.06 mg/kg. The “ED50 (anti-hyperalgesia)” value ([4]; intraplantar, CFA-inflamed) was 6.37 nmol, the “ED50 of the drug when the other drug (loperamide or BOMI) is also present” value [4, 22] was 0.5 nmol and the “ED50 (anti-hyperalgesia)” value [4, 16] was 227 µM. The “time of peak anti-allodynia post-injection” value [5] was 1 h, the ED50 [7, 17] was 12.4 mg/kg and the ED50 [7, 18] was 57.2 nmol. For the same compound, the ED50 [8] was 5.44 nmol.

For Oc1ccc2c3c1O[C@H]1c4[nH]c5ccccc5c4C[C@@]4(O)[C@@H](C2)N(CC2CC2)CC[C@]314 [NTI, naltrindole], the calcium mobilization profile [3] was “devoid of any calcium mobilization; also recorded: did not show calcium mobilization in any cell line tested” and the “reversal” value [13] was “significantly reversed the anti-hyperalgesic effects of Lo-OMI in a dose-dependent manner”.

In the case of CN1CC[C@]23c4c5ccc(O)c4O[C@H]2c2c(c4ccccc4n2Cc2ccccc2)C[C@@]3(O)C1C5 [BOMI (6), (4bS,8aS,14bR)-14-benzyl-7-methyl-5,6,7,8,8a,9,14,14b-octahydro-4,8-methanobenzofuro[2,3-a]pyrido[4,3-b]carbazole-1,8a-diol], the “antagonism by β-FNA” value [2] is reported as “antagonized by β-FNA; also recorded: antagonism of (6) by β-FNA was more significant”, the calcium mobilization profile ([3]; listed as 6) is reported as “predominantly MOR-DOR heteromer-selective” and the calcium mobilization profile ([3]; listed as BOMI) is reported as “mixed, stimulation of MOR most active”. For the same compound, the ED50 [4, 15] was 0.08 mg/kg, the ED50 [4, 21] was 0.003 mg/kg and the “ED50 (anti-hyperalgesia)” value ([4]; intraplantar, CFA-inflamed) was 0.34 nmol. The “ED50 of the drug when the other drug (loperamide or BOMI) is also present” value [4, 22] was 0.02 nmol, the antinociceptive tolerance [6] was “neither agent injected i.t. produced antinociceptive tolerance” and the antinociceptive tolerance ([6]; listed as 6) was “did not produce tolerance”. The “potency relative to parent compound OMI (4)” value ([14]; i.c.v., % MPE at 10 min) was “three times more potent”, the “potency relative to parent compound OMI (4)” value ([14]; i.t., % MPE at 5 min) was 20 times and the “number of jumps in 10 minutes (mean)” value [9, 19] was 1 jumps. The “number of jumps in 10 minutes (mean)” value [9, 20] was 1 jumps, the dependence ([9]; listed as 6) was “neither OMI nor (6) produced dependence” and the dependence ([9]; listed as BOMI) was “did not create any dependence”. The “time of peak antinociceptive effect” value [10] was 30 min, the “% MPE” value ([10]; 20 min) was 38.3 ± 10.4 % MPE and the “% MPE” value ([10]; 30 min) was 19.6 ± 4.8 % MPE. For the same compound, the “% MPE” value ([10]; 60 min) was 42.8 ± 6.2 % MPE and the “% MPE” value ([10]; 120 min) was 38.4 ± 8.4 % MPE.
